Patent US5696089A, “Histidine substituted growth hormone releasing factor analogs” (Roche Vitamins Inc., priority 1995, dated 1997)
Where a SMILES comes first, the peptide text is derived from it. Where no end group is shown, it is not given here. The star is where a group is joined. Desaminohistidyl = O=C(CCc1c[nH]cn1)*

Tests used:
rat pituitary cells = assay type: cell-based
Experimental: The biological activity of the novel peptides were compared with that of a synthetic standard of the natural sequence of GRF(1-44)-NH2 which was isolated from a human pancreatic tumor of an individual suffering from acromegaly (Salk Institute standard hp-GRF-NH2 (NL-A-10)). The assay for biological activity, which is based on the ability to stimulate production of growth hormone in rat pituitary cells in tissue culture, was performed in the following manner. Pituitaries from 30-40 male Sprague-Dawley rats (175 g) were removed aseptically after decapitation. The anterior lobes were collected, washed 3 times in sterile Hepes buffer (0.025M)(pH 7.35) and dispersed at 37° C. in 20-30 ml Hepes buffer (pH 7.35) containing collagenasa (4 mg per ml) and Dispase (Protease grande II, 2 mg per ml). After gentle 80 min. vortexing and trituration by Pasteur pipette, the dispersed cells were separated by centrifugation (150×g, 4 min.) and re-suspended in Hepes buffer containing neuraminidase (4 μg/ml), and 200 μg/ml ethylenediaminetetraacetic acid (EDTA) disodium salt pH 7.35, for 10 min. The cells were washed twice with plating medium and plated on multiwell-plates (1.5×10^5 cells per ml) using the following defined medium: F-12/DMEM/BGJ(6:3:1) (Gibco: 430-1700/430-1600/320-2591) with 2 g BSA/1., 2.38 g Hepes/1., 50 mg Gentamycin/1 (Schering Co.). The medium in each well was supplemented either with the novel peptide or natural GRF(1-44)-NH2 at concentrations ranging from 3.1 to 200 fmol. per ml. of medium. Control wells contained no supplement. Plating was done with this medium added with 2% fetal calf serum to ensure rapid fixation of the cells. On the fourth day the cells were washed twice with the defined medium without fetal calf serum. Finally 900 μl of defined medium was added to each well plus 100 μl of the same medium containing each individual treatment, in triplicate. After 3 hours of incubation the medium was collected and diluted as required to conduct radioimmuno- assays (RIAs) for rat growth hormone. RIAs were conducted using Sinha's anti-murine GH immune serum and procedures according to the National Pituitary Agency using protein A to precipitate antibody antigen complex.

[1] = In vitro plasma stability by porcine plasma incubation at 37° C.; assay type: in vitro ADME; conditions: pooled porcine plasma, 100 μg/ml, HPLC after SEP-PAK extraction
Experimental: In vitro plasma stability of GRF analogs were determined by porcine plasma incubation at 37° C. Pooled porcine plasma was collected from control pigs and stored at -20° C. GRF analogs of interest were prepared as discussed above. The plasma was first thawed and centrifuged at 3000 rpm for 20 minutes at 4° C. The plasma was then placed in a shaker bath at a temperature of 37° C. and allowed to equilibrate for 10 minutes. GRF analogs were dissolved in water containing 0.1% TFA at a concentration of 2 μg/μl. As soon as the initial equilibration was completed, an analog was added into the plasma sample to a final concentration of 100 μg/ml. Immediately after the addition of a GRF analog, a 1 ml aliquot of plasma sample was withdrawn and acidified with 0.2 ml of 0.1M TFA/H2 O and kept at 0° C. for later solid phase extraction. The remaining plasma samples were incubated in the water bath and 1 ml aliquots were withdrawn at different time periods and acidified by the same procedure described above.
Plasma samples were extracted with SEP-PAK octadecyl columns (Waters Associates). The column cartridge was washed with 2 ml 80% acetic acid followed by 4 ml of 0.01M TFA. After the plasma sample was loaded, the column was washed with 3 ml of 0.1M TFA to remove the excess unbound biological material. The solvent remaining in the cartridges was forced out by two passes of air from a 10 ml syringe. The bound material was then eluted with 80% acetic acid and 3 ml eluate was collected for chromatographic analysis. Two high performance liquid chromatography systems were used. System A: Instrumentation--Perkin-Elmer Series 4 liquid chromatography microprocessor-controlled solvent delivery system, Waters intelligent sample processor (WISP) model 710 (Waters Associates), and a Hewlett-Packard 1040M Diode Assay Detection System. Column--Delta Pak C18, 3.5×150 mm, 5 μm spherical (Nihon Waters Ltd.). Mobile phase-(A) 0.1% TFA in H2 O, (B) 0.1% TFA in 95% acetonitrile and 5% H2 O. Gradient was 34-50% (B) in 60 minutes, flow rate 1 ml/minute, and the detection was at 215 nm. System B: Instrumentation--Waters 600 multi-solvent delivery system, WISP model 712 and LDC spectromonitor III. Column--Vydac 201TP54, C18 4.6×250 mm, 10 μm (The Separations Group). Mobile phase--same as in System A. Gradient max 30% (B) isocratic for 10 minutes, followed by 30-50% (B) gradient for 60 minutes, flow rate was 1 ml/minute, and the detection was at 215 nm. Amino acid analysis was done as described above. Results of plasma half life are found in Table 2.

Compound | Half Life (t1/2) [1] [h] | Potency of GRF Analogs Relative to GRF(1-44)-NH2 (rat pituitary cells)
HIDAIFTNSYRKVLAQLSARKLLQDIMSR-NH2 [[His^1,Ile^2,Ala^15]-GRF(1-29)-NH2] | – | 1.24
CC[C@H](C)[C@H](NC(=O)[C@H](C)NC(=O)[C@H](CC(=O)O)NC(=O)[C@@H](NC(=O)CCc1c[nH]cn1)C(C)C)C(=O)N[C@@H](Cc1ccccc1)C(=O)N[C@H](C(=O)N[C@@H](CC(N)=O)C(=O)N[C@@H](CO)C(=O)N[C@@H](Cc1ccc(O)cc1)C(=O)N[C@@H](CCCNC(=N)N)C(=O)N[C@@H](CCCCN)C(=O)N[C@H](C(=O)N[C@@H](CC(C)C)C(=O)N[C@@H](C)C(=O)N[C@@H](CCC(N)=O)C(=O)N[C@@H](CC(C)C)C(=O)N[C@@H](CO)C(=O)N[C@@H](C)C(=O)N[C@@H](CCCNC(=N)N)C(=O)N[C@@H](CCCCN)C(=O)N[C@@H](CC(C)C)C(=O)N[C@@H](CC(C)C)C(=O)N[C@@H](CCC(N)=O)C(=O)N[C@@H](CC(=O)O)C(=O)N[C@H](C(=O)N[C@@H](CCSC)C(=O)N[C@@H](CO)C(=O)N[C@@H](CCCNC(=N)N)C(N)=O)[C@@H](C)CC)C(C)C)[C@@H](C)O [[desNH2 His^1,Val^2,Ala^15]-GRF(1-29)-NH2] (Desaminohistidyl-VDAIFTNSYRKVLAQLSARKLLQDIMSR-NH2) | – | 1.21
HVDAIFTNSYRKVLAQLSARKLLQDIMSR-NH2 [[His^1,Val^2,Ala^15]-GRF(1-29)-NH2] | 1 | 2.58
CC[C@H](C)[C@H](NC(=O)[C@H](C)NC(=O)[C@H](CC(=O)O)NC(=O)[C@H](C)NC(=O)[C@@H](N)Cc1ccc(O)cc1)C(=O)N[C@@H](Cc1ccccc1)C(=O)N[C@H](C(=O)N[C@@H](CC(N)=O)C(=O)N[C@@H](CO)C(=O)N[C@@H](Cc1ccc(O)cc1)C(=O)N[C@@H](CCCNC(=N)N)C(=O)N[C@@H](CCCCN)C(=O)N[C@H](C(=O)N[C@@H](CC(C)C)C(=O)NCC(=O)N[C@@H](CCC(N)=O)C(=O)N[C@@H](CC(C)C)C(=O)N[C@@H](CO)C(=O)N[C@@H](C)C(=O)N[C@@H](CCCNC(=N)N)C(=O)N[C@@H](CCCCN)C(=O)N[C@@H](CC(C)C)C(=O)N[C@@H](CC(C)C)C(=O)N[C@@H](CCC(N)=O)C(=O)N[C@@H](CC(=O)O)C(=O)N[C@H](C(=O)N[C@@H](CCSC)C(=O)N[C@@H](CO)C(=O)N[C@@H](CCCNC(=N)N)C(=O)N[C@@H](CCC(N)=O)C(=O)N[C@@H](CCC(N)=O)C(=O)NCC(=O)N[C@@H](CCC(=O)O)C(=O)N[C@@H](CO)C(=O)N[C@@H](CC(N)=O)C(=O)N[C@@H](CCC(N)=O)C(=O)N[C@@H](CCC(=O)O)C(=O)N[C@@H](CCCNC(=N)N)C(=O)NCC(=O)N[C@@H](C)C(=O)N[C@@H](CCCNC(=N)N)C(=O)N[C@@H](C)C(=O)N[C@@H](CCCNC(=N)N)C(=O)N[C@@H](CC(C)C)C(N)=O)[C@@H](C)CC)C(C)C)[C@@H](C)O [GRF(1-44)-NH2, reference compound] | – | 1.00

The next lines start with results.

Half Life (t1/2) [1] [h] | Compound | Potency of GRF Analogs Relative to GRF(1-44)-NH2 (rat pituitary cells)
0.283 | YADAIFTNSYRKVLAQLSARKLLQDIMSR-NH2 [[Ala^15]-GRF(1-29)-NH2, reference compound] | –
1 | HVDAIFTNSYRKVLAQLSARKLLQDILSRQQG [[His^1,Val^2,Ala^15,Leu^27]-GRF(1-32)-OH] | 2.40
0.217 | CC[C@H](C)[C@H](NC(=O)[C@H](C)NC(=O)[C@H](CC(=O)O)NC(=O)[C@H](C)NC(=O)[C@@H](N)Cc1ccc(O)cc1)C(=O)N[C@@H](Cc1ccccc1)C(=O)N[C@H](C(=O)N[C@@H](CC(N)=O)C(=O)N[C@@H](CO)C(=O)N[C@@H](Cc1ccc(O)cc1)C(=O)N[C@@H](CCCNC(=N)N)C(=O)N[C@@H](CCCCN)C(=O)N[C@H](C(=O)N[C@@H](CC(C)C)C(=O)NCC(=O)N[C@@H](CCC(N)=O)C(=O)N[C@@H](CC(C)C)C(=O)N[C@@H](CO)C(=O)N[C@@H](C)C(=O)N[C@@H](CCCNC(=N)N)C(=O)N[C@@H](CCCCN)C(=O)N[C@@H](CC(C)C)C(=O)N[C@@H](CC(C)C)C(=O)N[C@@H](CCC(N)=O)C(=O)N[C@@H](CC(=O)O)C(=O)N[C@H](C(=O)N[C@@H](CCSC)C(=O)N[C@@H](CO)C(=O)N[C@@H](CCCNC(=N)N)C(N)=O)[C@@H](C)CC)C(C)C)[C@@H](C)O [GRF(1-29)-NH2, reference compound] | 0.71
1.17 | YVDAIFTNSYRKVLAQLSARKLLQDILSRQQG [[Val^2,Ala^15,Leu^27]-GRF(1-32)-OH] | –
